Patent publication US20250361546A1, “SCREENING METHODS FOR RNA-CONTROLLING COMPOUNDS” (Veritas In Silico Inc., priority 2018, published 2025)

Columns and labels:
Format in all cases: binding
[1] = system: A-4-G_Cy5/BHQ2; assay: FRET probe Tm measurement, single probe and 4-probe mixture (Example 5); conditions: 100 μM compound
Protocol: (§1) Four FRET probes with fluorescent modifications corresponding to four wavelengths detectable by a measuring device (CFX384 Touch manufactured by Bio-Rad) were prepared. • FRET probe with Cy5 at the 5′ end and BHQ2 modification at the 3′ end
(§2) The final levels were 50 nM RNA, 20 mM phosphate buffer (pH 6 5), 50 mM KCl, 1% DMSO, 0.1 μg/μl Bovine Serum Albumin (Takara Bio) or 0.05%-0.1% Tween-20, or 0.05%-0.1% Triton X-100 per probe. In addition, 10 μl solutions were mixed to make 100 μM compound if small compounds were included and incubated at room temperature for 10 minutes.
(§3) The solutions were dispensed into a 384 well plate, and the plate was kept in a qPCR machine (manufactured by CFX 384 Touch (Bio-Rad Co., Ltd.) for 15 seconds after the temperature was raised to 95° C., which was rapidly cooled to 4° C. and kept for 2 minutes, and then kept at 25° C. for 5 minutes. Then, it was raised to over 95° C. about 40 minutes, and the fluorescence output was measured every 1° C. in 10 seconds. For numerical differentiation of the fluorescence output, a total of seven points from the measured temperature T to plus or minus 3° C. were approximated to a straight line by the least squares method, and the slope was defined as the slope (D1) at the point of the measured temperature T. Similarly, the value of D1 was again subjected to numerical differentiation in the same manner, and the slope (D2) at the point of the measured temperature T was obtained. Here, in parts where the D1 value was 10 or more, the measured temperature T_D1MAX was obtained with D1 at maximum. A total of seven points from this measured temperature T_D1MAX to plus and minus 3° C. were used to calculate the value of T_INF at Y=0 by setting X as T and Y as D2 when the seven points were actually approximated to the line by least squares, and this was set as the Tm value. In addition, the difference (Tm−Tm_NO) in the Tm value (Tm_NO) between wells containing the compound and wells without it was acquired as ΔTm.
(§4) This work was carried out for single-probe wells and four-probe wells, respectively, to obtain the Tm and ΔTm values shown in Table 6 below.

[2] = system: MGA-N_FAM/BHQ1; assay: as above; conditions: 100 μM compound
Protocol: • FRET probe with FAM at the 5′ end and BHQ1 modification at the 3′ end
as §2, §3, §4

[3] = system: FMNA_Alexa532/BHQ1; assay: as above; conditions: 100 μM compound
Protocol: • FRET probe with HEX-equivalent Alexa 532 at the 5′ end and BHQ1 modification at the 3′ end
as §2, §3, §4

[4] = system: TAR21-G3_Texas Red/BHQ2; assay: as above; conditions: 100 μM compound
Protocol: • FRET probe with Texas Red at the 5′ end and BHQ2 modification at the 3′ end
as §2, §3, §4

[5] = system: A-4-G_Cy5/BHQ2, MGA-N_FAM/BHQ1, FMNA_Alexa532/BHQ1, TAR21-G3_Texas Red/BHQ2; assay: FRET probe Tm measurement, summary over four probes (Example 5); conditions: both single probes and mixed probes; 100 μM compound
Protocol: as §1
as §2, with “minutes. […]” for “minutes.”

[6] = system: A-4-G_Cy5/BHQ2 probe; assay: FRET probe Tm measurement with single compounds and compound mixture (Example 6); conditions: for ΔTm: 100 μM compound per compound, 50 nM RNA
Protocol: (§5) A-4-G_Cy5/BHQ2 probe and the Survivin-native+type probe modified with Cy5 at the 5′ end and BHQ2 at the 3′ end were prepared as shown in Examples 2 and 5.
(§6) The final levels were 50 nM RNA, 20 mM phosphate buffer (pH 6 5), 50 mM KCl, 1% DMSO, 0.1 μg/μl Bovine Serum Albumin (Takara Bio), or 0.05%-0.1% Tween-20, or 0.05%-0.1% Triton X-100. Further, if a low-molecular weight compound was included, 10 μl solutions were mixed to give 100 μM compound per compound and incubated at room temperature for 10 minutes.
as §3

[7] = system: Survivin-native+ type probe (Cy5/BHQ2); assay: as above; conditions: for ΔTm: 100 μM compound per compound, 50 nM RNA
Protocol: as §5, §6, §3

[8] = 4-probe mixture, Cy5 detection, 50 nM RNA per probe
[9] = 4-probe mixture, FAM detection, 50 nM RNA per probe
[10] = 4-probe mixture, HEX detection, 50 nM RNA per probe
[11] = 4-probe mixture, Texas Red detection, 50 nM RNA per probe

O=C(O)c1cn(C2CC2)c2cc(N3CCNCC3)c(F)cc2c1=O [CPFX, ciprofloxacin]
Tm (° C.) with compound [1, 8]: 68.96 °C
ΔTm (° C.) [1, 8]: 1.46 °C
Tm (° C.) with compound ([1]; Single probe, 50 nM RNA): 68.78 °C
ΔTm (° C.) ([1]; Single probe, 50 nM RNA): 1.41 °C
Tm (° C.) with compound [2, 9]: 74.22 °C
ΔTm (° C.) [2, 9]: 0.11 °C
Tm (° C.) with compound ([2]; Single probe, 50 nM RNA): 74.03 °C
ΔTm (° C.) ([2]; Single probe, 50 nM RNA): 0.33 °C
Tm (° C.) with compound [3, 10]: 78.07 °C
ΔTm (° C.) [3, 10]: −0.02 °C
Tm (° C.) with compound ([3]; Single probe, 50 nM RNA): 78.03 °C
ΔTm (° C.) ([3]; Single probe, 50 nM RNA): 0.09 °C
Tm (° C.) with compound [4, 11]: 85.75 °C
ΔTm (° C.) [4, 11]: −0.02 °C
Tm (° C.) with compound ([4]; Single probe, 50 nM RNA): 85.80 °C
ΔTm (° C.) ([4]; Single probe, 50 nM RNA): 0.07 °C
Tm increase (in words) [5]: Tm increase was obtained only at wavelengths corresponding to A-4-G_Cy5/BHQ2

CC1CCc2c(N3CCC(O)CC3)c(F)cc3c(=O)c(C(=O)O)cn1c23 (centres unmarked) [NDFX, nadifloxacin]
change of Tm value (in words) [6]: does not cause changes in the Tm value
ΔTm ([6]; Table 7, A-4-G): 0.15
ΔTm ([6]; rounded): 0.2 °C
change of Tm value (in words) [7]: does not cause changes in the Tm value
ΔTm ([7]; Table 7, SV-NL): 0.01
ΔTm ([7]; rounded): 0.0 °C
